Reference: ChEMBL document CHEMBL1799986, “In vitro inhibition of α-carbonic anhydrase isozymes by some phenolic compounds” (Bioorg Med Chem Lett, 2011)

Assays:
Carbonic anhydrase = biological target: T1, Carbonic anhydrase (Dicentrarchus labrax, UniProt Q2PCB5); assay: Inhibition of Dicentrarchus labrax CA using 4-nitrophenylacetate substrate by esterase assay
T1 sequence (Q2PCB5 whole entry): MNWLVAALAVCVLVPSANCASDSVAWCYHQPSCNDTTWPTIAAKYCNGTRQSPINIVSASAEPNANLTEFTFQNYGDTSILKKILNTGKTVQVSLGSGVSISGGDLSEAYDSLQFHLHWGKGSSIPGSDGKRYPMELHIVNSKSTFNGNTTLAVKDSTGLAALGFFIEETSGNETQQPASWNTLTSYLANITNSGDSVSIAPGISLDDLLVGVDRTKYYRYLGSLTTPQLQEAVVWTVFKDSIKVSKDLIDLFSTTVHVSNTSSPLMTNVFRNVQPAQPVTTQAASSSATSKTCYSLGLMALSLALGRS

Carbonic anhydrase 6 = Carbonic anhydrase 6 (Homo sapiens, UniProt P23280); assay: Inhibition of human CA6 using 4-nitrophenylacetate substrate by esterase assay
Chain of Carbonic anhydrase 6 (P23280 whole entry): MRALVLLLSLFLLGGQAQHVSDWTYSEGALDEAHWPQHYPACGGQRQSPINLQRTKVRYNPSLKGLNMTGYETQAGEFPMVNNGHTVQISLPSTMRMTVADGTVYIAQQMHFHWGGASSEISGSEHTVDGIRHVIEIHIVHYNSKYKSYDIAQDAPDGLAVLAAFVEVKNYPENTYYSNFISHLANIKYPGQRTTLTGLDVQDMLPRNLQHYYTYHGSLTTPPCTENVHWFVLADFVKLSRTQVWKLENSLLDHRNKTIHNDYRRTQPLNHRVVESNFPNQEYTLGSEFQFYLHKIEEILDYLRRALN

Carbonic anhydrase 1 = Carbonic anhydrase 1 (Homo sapiens, UniProt P00915); assay: Inhibition of human CA1 using 4-nitrophenylacetate substrate by esterase assay
Chain of Carbonic anhydrase 1 (P00915 whole entry): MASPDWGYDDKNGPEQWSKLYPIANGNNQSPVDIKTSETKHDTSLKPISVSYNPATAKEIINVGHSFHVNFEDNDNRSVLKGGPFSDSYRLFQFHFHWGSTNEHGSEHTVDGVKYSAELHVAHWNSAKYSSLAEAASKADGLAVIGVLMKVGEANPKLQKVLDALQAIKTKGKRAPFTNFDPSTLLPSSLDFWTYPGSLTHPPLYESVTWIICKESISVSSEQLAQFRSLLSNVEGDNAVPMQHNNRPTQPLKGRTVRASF

Carbonic anhydrase 2 = Carbonic anhydrase 2 (Homo sapiens, UniProt P00918); assay: Inhibition of human CA2 using 4-nitrophenylacetate substrate by esterase assay

Molecule `O=C(O)c1cc(O)cc(O)c1` [3,5-DIHYDROXYBENZOIC ACID] has a Ki (Carbonic anhydrase) of 2.13 µM.
For `O=C(O)c1cccc(O)c1` [3-HYDROXYBENZOIC ACID], the Ki (Carbonic anhydrase 6) was 3.17 µM and the Ki (Carbonic anhydrase) was 98.3 µM.
Work on `Oc1ccccc1O` [CATECHOL] yielded a Ki (Carbonic anhydrase) of 14.8 µM.
`O=C(O)c1cc(O)c(O)c(O)c1` [GALLIC ACID] gave a Ki (Carbonic anhydrase) of 4.13 µM.
`Oc1ccc(O)cc1` [HYDROQUINONE] showed a Ki (Carbonic anhydrase) of 5.93 µM.
`O=C(O)c1ccc(O)cc1` [PARABEN] gave a Ki (Carbonic anhydrase) of 8.46 µM.
In the case of `Oc1ccccc1` [PHENOL], the Ki (Carbonic anhydrase) is reported as 13.7 µM.
`O=C(O)c1ccc(O)c(O)c1` [PROTOCATECHUIC ACID] was tested, and the Ki (Carbonic anhydrase 6) was 4.72 µM and the Ki (Carbonic anhydrase) was 3.21 µM.
`Oc1cccc(O)c1O` [PYROGALLOL] gave a Ki (Carbonic anhydrase 1) of 7.41 µM, a Ki (Carbonic anhydrase 2) of 0.54 µM and a Ki (Carbonic anhydrase 6) of 0.52 µM. The Ki (Carbonic anhydrase) was 4.39 µM.
Work on `Oc1cccc(O)c1` [RESORCINOL] yielded a Ki (Carbonic anhydrase) of 6.42 µM.
`O=C(O)c1ccccc1O` [SALICYLIC ACID] was tested, and the Ki (Carbonic anhydrase) was 324 µM.
With `O=C(OC[C@H]1O[C@@H](OC(=O)c2cc(O)c(O)c(OC(=O)c3cc(O)c(O)c(O)c3)c2)[C@H](OC(=O)c2cc(O)c(O)c(OC(=O)c3cc(O)c(O)c(O)c3)c2)[C@@H](OC(=O)c2cc(O)c(O)c(OC(=O)c3cc(O)c(O)c(O)c3)c2)[C@@H]1OC(=O)c1cc(O)c(O)c(OC(=O)c2cc(O)c(O)c(O)c2)c1)c1cc(O)c(O)c(OC(=O)c2cc(O)c(O)c(O)c2)c1` [TANNIC ACID] the Ki (Carbonic anhydrase 1) was 75.9 µM, the Ki (Carbonic anhydrase 2) was 32.8 µM and the Ki (Carbonic anhydrase 6) was 17.8 µM. For the same molecule, the Ki (Carbonic anhydrase) was 9.41 µM.
